Columns and labels:
[1] = molecular target: recombinant protein KIF18A (kinesin domain: aa 1-467) (Homo sapiens (Human), UniProt Q8NI77); test: Assay on inhibition of KIF18A enzymatic activity (ADP-Glo); format: biochemical; conditions: KIF18A 80 nM, ATP 80 μM, 3 h at room temperature, ADP-Glo luminescence; read-out: IC50 (μM), inhibitory effects of compounds on KIF18A enzymatic activity
Source text: The recombinant protein KIF18A (kinesin domain: aa 1-467) used in this assay was expressed by the Bac-to-Bac baculovirus expression system from Invitrogen, and the resulting protein was purified for use in this assay (Seki, M. et al. 2003 Nucleic Acids Res.). Quantitative detection of KIF18A enzymatic activity was completed using an ADP-Glo™ kinase assay kit (Promega Inc). Related procedures strictly followed the product instructions, which are briefly described as follows:
The reaction system consisted of a test compound, the recombinant protein KIF18A (aa 1-467), ATP (Promega Inc), and an assay buffer. The test compound was prepared into a 0.5 mM stock solution using DMSO (Sigma Inc) and then serially diluted in DMSO. The assay buffer consisted of an aqueous solution of 15 mM Tris, 10 mM MgCl2 (Sigma Inc), 0.01% Pluronic F-68 (Life Technologies Inc), 1 μM paclitaxel (Cytoskeleton Inc), 30 μg/mL porcine tubulin (Cytoskeleton Inc), and 2% DMSO. The KIF18A protein (final concentration: 80 nM) and the compound at different concentrations (1 μL) were added to the prepared assay buffer (50 μL), and the mixture was incubated at room temperature for 15 min. Then, ATP (final concentration: 80 μM) was added to the reaction mixture, and the resulting mixture was incubated at room temperature for 3 h. After the reaction was completed, 5 μL of the ADP-Glo™ reagent and 2.5 μL of the reaction mixture were added to a 384-well plate (Grenier Inc). The resulting mixture was mixed homogeneously, then sealed by an aluminum foil sealing film, and incubated at room temperature in the dark for 40 min. Finally, 10 μL of the […] was added to each reaction well, and the mixture was incubated at room temperature in the dark for 40 min. After all reactions were completed, the luminescence values of the wells were read on a microplate reader (Molecular Device_SpectraMax Id5), and the inhibition ratios were calculated. The calculation formula for the inhibition rates was as follows: inhibition rate=(1−(compound group−blank group)/(negative control group−blank group))×100%. Then, based on the inhibition rates at different compound concentrations, the IC50 value of the test compound was calculated using the GraphPad Prism 8 software.

NIH:OVCAR-3 cells = test: Assay on inhibition of OVCAR3 tumor cell proliferation (CellTiter-Glo); format: cell-based; conditions: Homo sapiens, OVCAR-3, 72 h, 3 days of drug treatment, read-out: IC50 (μM), inhibitory effects of compounds on tumor cell proliferation
Method: NIH:OVCAR-3 cells (ATCC, Cat No. HTB-161, purchased from Co-Bier) were seeded into a T75 culture flask and cultured in an RPMI 1640 medium containing 20% FBS for 3 days in preparation for subsequent culturing and seeding into a 96-well plate for the cell proliferation assay.
The OVCAR3 cells were seeded at a density of 3000 cells/100 μL/well into the 96-well cell plate, and then the plate was incubated in an incubator (37° C., 5% CO2) for 18 h. On the second day, drug treatment was started. Serially diluted test compound solutions (each drug starting at a concentration of 10 μM, diluted in DMSO, with a dilution ratio of 1:3, and nine gradient points for each drug) or DMSO (negative control) was added to the medium in the plate at 100 μL/well, and a blank group was set up with only medium, but no seeded cell strains. After the drug addition, the plate was incubated in the incubator for another 3 days (37° C., 5% CO2). On the fourth day, plate detection was performed. To each well, 100 μL of CellTiter-Glo reagent (Promega G9243) was added. The plate was shaken for 5 min and then left to stand at room temperature for 5 min. The chemical luminescence signal value of each well was determined using a microplate reader (PerkinElmer EnVision®2104). Cell proliferation inhibition rate=(1−(compound group−blank group)/(DMSO group−blank group))×100%. Then, the IC50 value of each compound was calculated using the GraphPad Prism 8 software.

Chain of recombinant protein KIF18A (kinesin domain: aa 1-467) (Q8NI77 1-467): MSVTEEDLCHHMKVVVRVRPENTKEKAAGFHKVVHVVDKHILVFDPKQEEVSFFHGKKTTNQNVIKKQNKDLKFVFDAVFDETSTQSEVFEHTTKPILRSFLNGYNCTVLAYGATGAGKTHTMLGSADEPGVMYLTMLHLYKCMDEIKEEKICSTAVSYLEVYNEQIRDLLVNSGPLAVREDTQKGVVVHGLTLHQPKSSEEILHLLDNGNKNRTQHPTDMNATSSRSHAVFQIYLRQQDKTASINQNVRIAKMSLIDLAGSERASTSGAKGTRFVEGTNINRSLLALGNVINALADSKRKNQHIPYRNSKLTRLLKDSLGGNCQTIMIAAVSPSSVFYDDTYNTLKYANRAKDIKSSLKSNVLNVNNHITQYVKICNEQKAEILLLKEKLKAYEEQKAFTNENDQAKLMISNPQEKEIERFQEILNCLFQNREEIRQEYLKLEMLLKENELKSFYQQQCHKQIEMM
Chain of recombinant protein KIF18A (kinesin domain: aa 1-467) (P02550 whole entry partner, the tested form may be a part): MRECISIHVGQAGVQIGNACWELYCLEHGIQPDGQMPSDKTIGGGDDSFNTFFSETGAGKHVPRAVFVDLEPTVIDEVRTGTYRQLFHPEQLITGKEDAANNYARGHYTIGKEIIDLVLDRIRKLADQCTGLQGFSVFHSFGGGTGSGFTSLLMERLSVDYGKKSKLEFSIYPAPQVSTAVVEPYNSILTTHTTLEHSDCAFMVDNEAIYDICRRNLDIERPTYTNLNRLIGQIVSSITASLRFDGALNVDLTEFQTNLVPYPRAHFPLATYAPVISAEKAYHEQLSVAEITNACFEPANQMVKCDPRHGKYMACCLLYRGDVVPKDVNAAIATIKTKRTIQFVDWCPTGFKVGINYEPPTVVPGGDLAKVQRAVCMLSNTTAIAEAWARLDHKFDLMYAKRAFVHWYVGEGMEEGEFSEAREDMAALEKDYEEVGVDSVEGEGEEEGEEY
Chain of recombinant protein KIF18A (kinesin domain: aa 1-467) (P02554 whole entry partner, the tested form may be a part): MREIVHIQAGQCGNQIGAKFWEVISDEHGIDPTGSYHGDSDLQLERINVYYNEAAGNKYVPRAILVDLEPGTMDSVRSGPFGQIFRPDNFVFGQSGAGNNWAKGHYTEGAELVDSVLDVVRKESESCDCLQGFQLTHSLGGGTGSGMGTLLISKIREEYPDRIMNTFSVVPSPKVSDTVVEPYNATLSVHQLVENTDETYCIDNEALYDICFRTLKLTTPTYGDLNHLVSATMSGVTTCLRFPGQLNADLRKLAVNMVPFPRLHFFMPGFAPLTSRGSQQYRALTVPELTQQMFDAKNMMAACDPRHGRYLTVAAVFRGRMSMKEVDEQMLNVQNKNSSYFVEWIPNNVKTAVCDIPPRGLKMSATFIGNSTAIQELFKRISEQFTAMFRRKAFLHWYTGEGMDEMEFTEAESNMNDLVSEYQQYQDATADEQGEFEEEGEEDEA

Row | SMILES | IC50 [1] [µM] | IC50 (NIH:OVCAR-3 cells) [µM]
1 | Cc1cc(-c2cn(-c3ccc(NS(=O)(=O)CCO)cc3N3CCC4(CC3)CC4)nn2)nc(N2CCC(F)(F)CC2)n1 [Example I-79, N-(4-(4-(2-(4,4-Difluoropiperidin-1-yl)-6-methylpyrimidin-4-yl)-1H-1,2,3-triazol-1-yl)-3-(6-azaspiro[2.5]octan-6-yl)phenyl)-2-hydroxyethane-1-sulfonamide] | 0.004 | 0.038
2 | Cc1cc(-c2nnc(-c3ccc(NS(=O)(=O)CCO)cc3N3CCC4(CC3)CC4)s2)nc(N2CCCC(F)(F)C2)n1 [Example I-85, N-(4-(5-(2-(3,3-Difluoropiperidin-1-yl)-6-methylpyrimidin-4-yl)-1,3,4-thiadiazol-2-yl)-3-(6-azaspiro[2.5]octan-6-yl)phenyl)-2-hydroxyethane-1-sulfonamide] | 0.022 | 0.284
3 | Cc1cc(-c2nnc(-c3ccc(NS(=O)(=O)CCO)cc3N3CCC4(CC3)CC4)o2)nc(N2CC3CC3C2)n1 (stereo not drawn) [Example I-86, N-(4-(5-(2-(3-azabicyclo[3.1.0]hexan-3-yl)-6-methylpyrimidin-4-yl)-1,3,4-oxadiazol-2-yl)-3-(6-azaspiro[2.5]octan-6-yl)phenyl)-2-hydroxyethane-1-sulfonamide] | 0.003 | 0.07
4 | Cc1cc(-c2nnc(-c3ccc(NS(=O)(=O)CCO)cc3N3CCC4(CC3)CC4)o2)nc(N2CCC(F)(F)CC2)c1 [Example I-87, N-(4-(5-(6-(4,4-Difluoropiperidin-1-yl)-4-methylpyridin-2-yl)-1,3,4-oxadiazol-2-yl)-3-(6-azaspiro [2.5]octan-6-yl)phenyl)-2-hydroxyethanesulfonamide] | 0.004 | 0.144
5 | Cc1cc(-c2nnc(-c3ccc(NS(=O)(=O)CCO)cc3N3CCC4(CC3)CC4)o2)nc(N2CC3C(C2)C3(F)F)n1 (stereo not drawn) [Example I-88, N-(4-(5-(2-(6,6-Difluoro-3-azabicyclo[3.1.0]hexan-3-yl)-6-methylpyrimidin-4-yl)-1,3,4-oxadiazol-2-yl)-3-(6-azaspiro[2.5]octan-6-yl)phenyl)-2-hydroxyethane-1-sulfonamide] | 0.001 | 0.015
6 | CCc1cc(-c2cnn(-c3ccc(NS(=O)(=O)CCO)cc3N3CCC4(CC3)CC4)c2)nc(N2CCC(F)(F)CC2)n1 [Example I-95, N-(4-(4-(2-(4,4-Difluoropiperidin-1-yl)-6-ethylpyrimidin-4-yl)-1H-pyrazol-1-yl)-3-(6-azaspiro[2.5]octan-6-yl)phenyl)-2-hydroxyethane-1-sulfonamide] | 0.002 | 0.412
7 | Cc1cc(-c2nnc(-c3ccc(NS(=O)(=O)CCO)cc3N3CCC4(CC3)CC4)o2)nc(N2CC(F)(F)CC(F)(F)C2)n1 [Example I-100, N-(4-(5-(6-Methyl-2-(3,3,5,5-tetrafluoropiperidin-1-yl)pyrimidin-4-yl)-1,3,4-oxadiazol-2-yl)-3-(6-azaspiro[2.5]octan-6-yl)phenyl)-2-hydroxyethane-1-sulfonamide] | 0.01 | 0.115
8 | Cc1cc(-c2nnc(-c3ccc(NS(=O)(=O)CCO)cc3N3CCC4(CC3)CC4)o2)nc(N2C[C@@H](F)[C@@H](F)C2)n1 [Example I-101, N-(4-(5-(2-((3S,4R)-3,4-Difluoropyrrolidin-1-yl)-6-methylpyrimidin-4-yl)-1,3,4-oxadiazol-2-yl)-3-(6-azaspiro[2.5]octan-6-yl)phenyl)-2-hydroxyethane-1-sulfonamide] | 0.008 | 0.26
9 | Cc1cc(-c2nnc(-c3ccc(NS(=O)(=O)CCO)cc3N3CCC4(CC3)CC4)o2)nc(N2CCCC(F)C2)n1 (stereo not drawn) [Example I-102, N-(4-(5-(2-(3-Fluoropiperidin-1-yl)-6-methylpyrimidin-4-yl)-1,3,4-oxadiazol-2-yl)-3-(6-azaspiro[2.5]octan-6-yl)phenyl)-2-hydroxyethane-1-sulfonamide] | 0.004 | 0.144
10 | Cc1cc(-c2nnc(-c3ccc(NS(=O)(=O)CCO)cc3N3CCC4(CC3)CC4)o2)cc(N2CCC(F)CC2)n1 [Example I-105, N-(4-(5-(2-(4-Fluoropiperidin-1-yl)-6-methylpyridin-4-yl)-1,3,4-oxadiazol-2-yl)-3-(6-azaspiro [2.5]octan-6-yl)phenyl)-2-hydroxyethane-sulfonamide] | 0.002 | 0.033
11 | Cc1cc(-c2cnn(-c3ccc(NS(=O)(=O)CCO)cc3N3CCC(F)(F)CC3)c2)nc(N2CCC(F)(F)CC2)n1 [Example I-106, N-(3-(4,4-Difluoropiperidin-1-yl)-4-(4-(2-(4,4-difluoropiperidin-1-yl)-6-methylpyrimidin-4-yl)-1H-pyrazol-1-yl)phenyl)-2-hydroxyethane-1-sulfonamide] | 0.011 | 0.208
12 | O=S(=O)(CCO)Nc1ccc(-n2cc(-c3cc(C(F)F)nc(N4CCC(F)(F)CC4)c3)cn2)c(N2CCC3(CC2)CC3)c1 [Example I-107, N-(4-(4-(2-(Difluoromethyl)-6-(4,4-difluoropiperidin-1-yl)pyridin-4-yl)-1H-pyrazol-1-yl)-3-(6-azaspiro[2.5]octan-6-yl)phenyl)-2-hydroxyethane-1-sulfonamide] | 0.008 | 0.213
13 | O=S(=O)(CCO)Nc1ccc(-n2cc(-c3ccnc(N4CCC(F)(F)CC4)n3)cn2)c(N2CCC3(CC2)CC3)c1 [Example I-109, N-(4-(4-(2-(4,4-Difluoropiperidin-1-yl)pyrimidin-4-yl)-1H-pyrazol-1-yl)-3-(6-azaspiro[2.5]octan-6-yl)phenyl)-2-hydroxyethane-1-sulfonamide] | 0.005 | 0.066
14 | Cc1cc(-c2cnn(-c3ccc(NS(=O)(=O)CCO)cc3N3CCC4(CC3)CC4)c2)nc(C2CCC(F)(F)CC2)n1 [Example I-110, N-(4-(4-(2-(4,4-Difluorocyclohexyl)-6-methylpyrimidin-4-yl)-1H-pyrazol-1-yl)-3-(6-azaspiro[2.5]octan-6-yl)phenyl)-2-hydroxyethane-1-sulfonamide] | 0.002 | 0.061
15 | Cc1cc(-c2cnn(-c3ccc(NS(=O)(=O)[C@H](C)CO)cc3N3CCC4(CC3)CC4)c2)nc(N2CCC(F)(F)CC2)n1 [Example I-111, (R)—N-(4-(4-(2-(4,4-Difluoropiperidin-1-yl)-6-methylpyrimidin-4-yl)-1H-pyrazol-1-yl)-3-(6-azaspiro[2.5]octan-6-yl)phenyl)-1-hydroxypropane-2-sulfonamide] | 0.005 | 0.073
16 | Cc1cc(-c2cnn(-c3ccc(NS(=O)(=O)[C@@H](C)CO)cc3N3CCC4(CC3)CC4)c2)nc(N2CCC(F)(F)CC2)n1 [Example I-112, (S)—N-(4-(4-(2-(4,4-Difluoropiperidin-1-yl)-6-methylpyrimidin-4-yl)-1H-pyrazol-1-yl)-3-(6-azaspiro[2.5]octan-6-yl)phenyl)-1-hydroxypropane-2-sulfonamide] | 0.002 | 0.107
17 | Cc1cc(-c2cnn(-c3ccc(NS(=O)(=O)CCO)cc3N3CCC4(CC3)CC4)c2)nc(N2CC3C(C2)C3(F)F)n1 (stereo not drawn) [Example I-113, N-(4-(4-(2-(6,6-Difluoro-3-azabicyclo[3.1.0]hexan-3-yl)-6-methylpyrimidin-4-yl)-1H-pyrazol-1-yl)-3-(6-azaspiro[2.5]octan-6-yl)phenyl)-2-hydroxyethane-1-sulfonamide] | 0.007 | 0.051
18 | Cc1cc(-c2cnn(-c3ccc(NS(=O)(=O)CCO)cc3N3CCC4(CC3)CC4)c2)nc(N2CCC(F)CC2)n1 [Example I-114, N-(4-(4-(2-(4-Fluoropiperidin-1-yl)-6-methylpyrimidin-4-yl)-1H-pyrazol-1-yl)-3-(6-azaspiro[2.5]octan-6-yl)phenyl)-2-hydroxyethane-1-sulfonamide] | 0.007 | 0.076

Reference: US20250250264A1, “KIF18A INHIBITOR AND USE THEREOF” (Wuhan Humanwell Innovative Drug Research and Development …, priority 2022, published 2025)
